Measurements as given in patent US20150210660A1, “ALICYCLIC EPOXY COMPOUND AND METHOD FOR PRODUCING SAME” (DAICEL CORPORATION, priority 2012, published 2015).

Assays:
[1] = Evaluation of reactivity with acid (stirring with 2-ethylhexanoic acid in 1,3,5-trimethylbenzene at 150° C.); type: physicochemical; settings: for Oxirane oxygen content: HBr titrimetry; for Acid value: JIS K 0070
Description: A mixture was prepared by blending 5.2 g of the 3,4-epoxycyclohexylmethyl 3,5,5-trimethylhexanoate prepared in Example 1 (product of Example 1), 1.4 g of 2-ethylhexanoic acid (trade name Octanoic Acid, supplied by Kyowa Hakko Chemical Co., Ltd.), and 8.5 g of 1,3,5-trimethylbenzene (reagent, supplied by Wako Pure Chemical Industries, Ltd.). The mixture was stirred at 150° C. for 6 hours. The acid value and oxirane oxygen content of the mixture were measured before the stirring with heating, and 2 hours, 4 hours, and 6 hours into the stirring.
The oxirane oxygen content measurement in the evaluation of reactivity with acid was performed by HBr titrimetry in which titration was performed with a N/10 hydrogen bromide solution in acetic acid and with crystal violet as an indicator. The acid value measurement was performed in conformance with a method described in JIS K 0070.
Instead of 3,4-epoxycyclohexylmethyl 3,5,5-trimethylhexanoate, there were prepared 3,4-epoxycyclohexylmethyl(3,4-epoxy)cyclohexane carboxylate (trade name CELLOXIDE 2021P, supplied by Daicel Corporation), 4-vinylcyclohexene oxide (trade name CELLOXIDE 2000, supplied by Daicel Corporation), 1-methyl-4-(2-methyloxiranyl)-7-oxabicyclo[4.1.0]heptane (trade name CELLOXIDE 3000, supplied by Daicel Corporation), D-limonene oxide (supplied by Nippon Terpene Chemicals, Inc.), and di-2-ethylhexyl epoxyhexahydrophthalate (trade name SANSO CIZER E-PS, supplied by New Japan Chemical Co., Ltd.). These epoxides were used in charged amounts given in Table 1 and subjected to evaluation of reactivity with an acid (2-ethylhexanoic acid) by the above procedure.
Table 2 also gives acid residual percentages as calculated from the acid values. The acid residual percentages are percentages of the acid present in the system (in the mixture) at the individual timings (after 2 hours, 4 hours, and 6 hours) in which the amount of the acid present in the system before the stirring with heating (0 hour) was defined as 100%.

[2] = Volatility evaluation: boiling point measurement under reduced pressure using a distillator; type: physicochemical
Description: The 3,4-epoxycyclohexylmethyl 3,5,5-trimethylhexanoate prepared in Example 1 was subjected to boiling point measurement under reduced pressure using a distillator.
The measured boiling points at the individual pressures were plotted on a logarithmic graph (semilogarithmic graph with the logarithmic scale indicating the pressure) to give an approximate curve. Using the approximate curve, a boiling point of the product at normal atmospheric pressure (760 Torr; 101325 Pa) was calculated and found to be 307° C.

[3] = stirring time 0 hr (before heating), defined as 100%
[4] = stirring time 0 hr (before heating)
[5] = stirring time 2 hrs at 150° C., calculated from acid values, 0 hr = 100%
[6] = stirring time 4 hrs at 150° C., calculated from acid values, 0 hr = 100%
[7] = stirring time 6 hrs at 150° C., calculated from acid values, 0 hr = 100%

Row | Acid residual percentage [1, 3] [%] | Oxirane oxygen content [1, 4] [%] | Acid value [1, 4] [KOH-mg/g] | Oxirane oxygen content ([1]; stirring time 2 hrs at 150° C.) [%] | Acid value ([1]; stirring time 2 hrs at 150° C.) [KOH-mg/g] | Acid residual percentage [1, 5] [%] | Oxirane oxygen content ([1]; stirring time 4 hrs at 150° C.) [%] | Acid value ([1]; stirring time 4 hrs at 150° C.) [KOH-mg/g] | Acid residual percentage [1, 6] [%] | Oxirane oxygen content ([1]; stirring time 6 hrs at 150° C.) [%] | Acid value ([1]; stirring time 6 hrs at 150° C.) [KOH-mg/g] | Acid residual percentage [1, 7] [%] | acid-scavenging capability (reactivity with the acid) ([1]; as compared with the other epoxides of Table 2) | boiling point at normal atmospheric pressure ([2]; 760 Torr, 101325 Pa, calculated from approximate curve of the measured boiling points) [°C] | boiling point ([2]; at 11 Torr (1467 Pa)) [°C] | boiling point ([2]; at 31 Torr (4133 Pa)) [°C] | boiling point ([2]; at 50 Torr (6666 Pa)) [°C] | SMILES
1 | 100 | 2.00 | 37.56 | 1.51 | 21.23 | 57 | 1.33 | 14.54 | 39 | 1.11 | 11.22 | 30 |  |  |  |  |  | O=C(OCC1CCC2OC2C1)C1CCC2OC2C1 (centres unmarked) [CELLOXIDE 2021P, 3,4-epoxycyclohexylmethyl(3,4-epoxy)cyclohexane carboxylate]
2 | 100 | 1.92 | 38.36 | 1.56 | 26.27 | 68 | 1.38 | 22.44 | 58 | 1.25 | 19.15 | 50 |  |  |  |  |  | C=C(C)C1CCC2(C)OC2C1 [D-Limonene oxide, D-limonene oxide]
3 | 100 | 1.82 | 37.66 | 1.20 | 20.32 | 54 | 1.00 | 13.13 | 35 | 0.89 | 9.98 | 27 | higher acid-scavenging capability | 307 | 191 | 218 | 233 | CC(CC(=O)OCC1CCC2OC2C1)CC(C)(C)C (centres unmarked) [Product of Example 1, 3,4-epoxycyclohexylmethyl 3,5,5-trimethylhexanoate]
4 | 100 | 1.84 | 38.13 | 1.72 | 33.80 | 89 | 1.63 | 32.16 | 84 | 1.53 | 27.97 | 73 |  |  |  |  |  | CCCCC(CC)COC(=O)C1CC2OC2CC1C(=O)OCC(CC)CCCC (centres unmarked) [SANSO CIZER E-PS, di-2-ethylhexyl epoxyhexahydrophthalate]

The next lines start with the compound.

Row | SMILES | Acid residual percentage [1, 3] [%] | Oxirane oxygen content [1, 4] [%] | Acid value [1, 4] [KOH-mg/g] | Oxirane oxygen content ([1]; stirring time 2 hrs at 150° C.) [%] | Acid value ([1]; stirring time 2 hrs at 150° C.) [KOH-mg/g] | Acid residual percentage [1, 5] [%] | Oxirane oxygen content ([1]; stirring time 4 hrs at 150° C.) [%] | Acid value ([1]; stirring time 4 hrs at 150° C.) [KOH-mg/g] | Acid residual percentage [1, 6] [%] | Oxirane oxygen content ([1]; stirring time 6 hrs at 150° C.) [%] | Acid value ([1]; stirring time 6 hrs at 150° C.) [KOH-mg/g] | Acid residual percentage [1, 7] [%] | acid-scavenging capability (reactivity with the acid) ([1]; as compared with the other epoxides of Table 2) | boiling point at normal atmospheric pressure ([2]; 760 Torr, 101325 Pa, calculated from approximate curve of the measured boiling points) [°C] | boiling point ([2]; at 11 Torr (1467 Pa)) [°C] | boiling point ([2]; at 31 Torr (4133 Pa)) [°C] | boiling point ([2]; at 50 Torr (6666 Pa)) [°C]
5 | C=CC1CCC2OC2C1 (centres unmarked) [CELLOXIDE 2000, 4-vinylcyclohexene oxide] | 100 | 1.92 | 35.90 | 146 | 23.80 | 66 | 1.25 | 17.54 | 49 | 1.15 | 12.90 | 36 |  |  |  |  | 
6 | CC1(C2CCC3(C)OC3C2)CO1 (centres unmarked) [CELLOXIDE 3000, 1-methyl-4-(2-methyloxiranyl)-7-oxabicyclo[4.1.0]heptane] | 100 | 1.81 | 36.04 | 0.91 | 24.52 | 68 | 0.71 | 22.04 | 61 | 0.61 | 18.65 | 52 |  |  |  |  | 
